Laboratory results reported in patent US11958828B1, “4,5-bis(4-bromophenyl)-1-hexyl-2-(3-pyridyl)-1H-imidazole as an antimicrobial compound” (KING FAISAL UNIVERSITY, priority 2023, dated 2024).

Tests used:
Format in all cases: cell-based
Details in all cases: after 10, 20, 40 and 60 min at all dilutions 1:100, 1:200, 1:400, 1:800
[1] = test system: Staphylococcus aureus; test: Antimicrobial testing by agar dilution, Staphylococcus aureus
Protocol: (§1) The antimicrobial properties of the 4,5-bis(4-bromophenyl)-1-hexyl-2-(3-Pyridyl)-1H-imidazole (5) were studied by the method of agar dilution. Test solutions of each compound were prepared in concentration of 1% using dimethylformamide as a solvent then they are diluted in physiological solution to obtain the final experimental dilutions 1:100, 1:200, 1:400, 1:800. The effect of these substances were compared with furacillin in a controllable study. The testing microbes used were gram positive bacteria Staphylococcus aureus, gram negative bacteria Escherichia coli, Pseudomonas aeruginosa and Candida albicans fungi were taken. The experiments used for this survey were meat-pentonlu agar (EPA) for cultivation of bacteria and Saburo environment for fungi. Each experiment used 1 ml of test solution on each plate 500 min. Add 2 drops of emulsified with microbes feel. All experimental samples were taken from the agar after 10, 20, 40, 60 minutes in the environment on the basis of Patrk planted. Bacteria were cultivated at a temperature of 37° C. for 1 day and the mushroom was kept in a thermostat for […] at a temperature of 28° C. in the. Then results were checked.

[2] = test system: Escherichia coli; test: Antimicrobial testing by agar dilution, Escherichia coli
Protocol: as §1

[3] = test system: Pseudomonas aeruginosa; test: Antimicrobial testing by agar dilution, Pseudomonas aeruginosa
Protocol: as §1

[4] = test system: Candida albicans; test: Antimicrobial testing by agar dilution, Candida albicans
Protocol: as §1

Measured: inhibition activity (in words)

CCCCCCn1c(-c2cccnc2)nc(-c2ccc(Br)cc2)c1-c1ccc(Br)cc1 [4,5-bis(4-bromophenyl)-1-hexyl-2-(3-pyridyl)-1H-imidazole]
highest inhibition activity: all assays above
